Measurements reported in publication PMC2810227, “3-O-Methylfunicone, a Selective Inhibitor of Mammalian Y-Family DNA Polymerases from an Australian Sea Salt Fungal Strain” (Marine Drugs, 2009).

What was measured:
Type in all cases: biochemical
mouse pol ι = molecular target: T1, mouse pol ι (Mus musculus, UniProt Q6R3M4); experiment: DNA polymerase assay, pol ι
T1 construct: His6 (C); made in house
From the text: (§1) Pol α was purified from calf thymus by immuno-affinity column chromatography, as described by Tamai et al.. Recombinant rat pol β was purified from E. coli JMpβ5, as described by Date et al.. The human pol γ catalytic gene was cloned into pFastBac. Histidine-tagged enzyme was expressed using the BAC-TO-BAC HT Baculovirus Expression System according to the supplier’s manual (Life Technologies, MD, USA) and purified using ProBoundresin (Invitrogen Japan, Tokyo, Japan). Human pols δ and ɛ were purified by nuclear fractionation of human peripheral blood cancer cells (Molt-4) using the second subunit of pols δ and ɛ-conjugated affinity column chromatography, respectively. A truncated form of human pol η (residues 1–511) tagged with His6 at its C-terminal was expressed in E. coli cells and purified as described by Kusumoto et al.. A recombinant mouse pol ι tagged with His6 at its C-terminal was expressed and purified by Ni-NTA column chromatography as described elsewhere (Masutani et al., in preparation). […]
(§2) The compounds were dissolved in distilled dimethyl sulfoxide (DMSO) at various concentrations and sonicated for 30 sec. […] Activity without the inhibitor was considered 100%, and the remaining activity at each concentration of the inhibitor was determined relative to this value. […]

human pol κ = molecular target: T2, human pol κ (Homo sapiens, UniProt Q9UBT6); experiment: DNA polymerase assay, pol κ
T2 construct: A truncated form of pol κ (residues 1–560) with 6 x His-tags attached at the C-terminus; 6xHis (C); made in house; host or cells: E. coli
T2 sequence (Q9UBT6 1-560): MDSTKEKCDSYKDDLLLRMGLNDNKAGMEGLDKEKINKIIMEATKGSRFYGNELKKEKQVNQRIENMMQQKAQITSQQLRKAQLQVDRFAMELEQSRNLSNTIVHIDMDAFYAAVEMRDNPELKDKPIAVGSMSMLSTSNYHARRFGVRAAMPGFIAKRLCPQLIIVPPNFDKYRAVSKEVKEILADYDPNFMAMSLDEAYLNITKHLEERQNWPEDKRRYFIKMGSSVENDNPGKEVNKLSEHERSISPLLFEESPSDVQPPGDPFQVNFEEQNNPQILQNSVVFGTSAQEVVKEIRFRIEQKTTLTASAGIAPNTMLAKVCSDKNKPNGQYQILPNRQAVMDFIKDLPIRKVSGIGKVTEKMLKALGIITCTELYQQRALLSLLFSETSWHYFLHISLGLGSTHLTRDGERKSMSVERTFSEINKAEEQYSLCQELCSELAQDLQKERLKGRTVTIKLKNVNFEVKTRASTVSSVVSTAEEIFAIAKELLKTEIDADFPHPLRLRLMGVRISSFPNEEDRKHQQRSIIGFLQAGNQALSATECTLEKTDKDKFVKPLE
From the text: as §1, §2

rat pol β = molecular target: T3, rat pol β (Rattus norvegicus, UniProt P06766); experiment: DNA polymerase assay, pol β; settings: 100 μM
T3 construct: made in house; host or cells: E. coli JMpβ5
From the text: as §1, §2

calf thymus TdT = molecular target: T4, calf thymus TdT (Bos taurus, UniProt P06526); experiment: DNA polymerase assay, TdT; settings: 100 μM
T4 construct: purchased Stratagene Cloning Systems (La Jolla, CA, USA)
From the text: as §1, §2

fruit fly pol α = molecular target: T5, fruit fly pol α (Drosophila melanogaster, UniProt P26019); experiment: DNA polymerase assay, insect pol α; settings: 100 μM
T5 construct: purified from early embryos of Drosophila melanogaster; from tissue; host or cells: early embryos of Drosophila melanogaster
From the text: as §1, §2

human telomerase = human telomerase (Homo sapiens, UniProt O14746); experiment: Telomerase assay; settings: 100 μM
human telomerase, sequence (O14746 whole entry): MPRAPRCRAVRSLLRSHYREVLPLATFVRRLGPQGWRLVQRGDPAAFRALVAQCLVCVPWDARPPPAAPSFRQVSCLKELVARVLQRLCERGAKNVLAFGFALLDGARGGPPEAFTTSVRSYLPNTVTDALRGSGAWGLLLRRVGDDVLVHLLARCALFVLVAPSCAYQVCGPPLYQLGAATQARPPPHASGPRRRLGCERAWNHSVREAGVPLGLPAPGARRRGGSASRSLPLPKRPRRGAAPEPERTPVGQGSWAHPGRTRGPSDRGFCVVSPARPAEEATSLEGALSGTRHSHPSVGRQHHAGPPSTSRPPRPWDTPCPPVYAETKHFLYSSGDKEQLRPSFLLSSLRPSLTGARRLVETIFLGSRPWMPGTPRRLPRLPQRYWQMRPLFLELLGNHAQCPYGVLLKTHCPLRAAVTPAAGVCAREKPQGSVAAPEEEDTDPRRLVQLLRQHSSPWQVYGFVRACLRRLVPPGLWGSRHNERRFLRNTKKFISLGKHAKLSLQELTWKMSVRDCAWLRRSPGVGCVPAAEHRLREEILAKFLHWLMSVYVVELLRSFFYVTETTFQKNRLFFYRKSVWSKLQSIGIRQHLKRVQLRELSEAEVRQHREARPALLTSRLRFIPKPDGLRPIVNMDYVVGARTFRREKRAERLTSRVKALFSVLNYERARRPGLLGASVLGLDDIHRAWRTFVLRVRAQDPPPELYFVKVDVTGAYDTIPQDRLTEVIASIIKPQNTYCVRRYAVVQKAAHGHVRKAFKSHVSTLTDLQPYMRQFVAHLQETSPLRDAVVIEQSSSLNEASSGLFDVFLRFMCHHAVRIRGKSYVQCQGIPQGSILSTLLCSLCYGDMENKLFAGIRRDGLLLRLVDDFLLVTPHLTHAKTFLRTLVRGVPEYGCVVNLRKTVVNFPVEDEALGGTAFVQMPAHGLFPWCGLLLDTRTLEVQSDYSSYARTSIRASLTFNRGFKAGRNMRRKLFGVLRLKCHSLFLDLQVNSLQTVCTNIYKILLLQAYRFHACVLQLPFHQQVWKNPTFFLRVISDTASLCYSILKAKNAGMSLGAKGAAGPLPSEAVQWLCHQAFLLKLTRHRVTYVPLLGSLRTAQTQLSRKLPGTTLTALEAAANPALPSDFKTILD
Method: (§3) The activities of calf primase of pol α, human telomerase, T7 RNA polymerase, mouse IMP dehydrogenase, human DNA topoisomerases I and II, T4 polynucleotide kinase and bovine DNase I were measured in standard assays according to the manufacturer’s specifications, as described by Tamiya-Koizumi et al., Oda et al., Nakayama et al., Mizushina et al., Ishimaru et al., Soltis et al. and Lu et al., respectively.

T7 RNA polymerase = molecular target: T6, T7 RNA polymerase (Escherichia phage T7, UniProt P00573); experiment: T7 RNA polymerase assay; settings: 100 μM
T6 construct: purchased Takara Bio (Tokyo, Japan)
T6 sequence (P00573 whole entry): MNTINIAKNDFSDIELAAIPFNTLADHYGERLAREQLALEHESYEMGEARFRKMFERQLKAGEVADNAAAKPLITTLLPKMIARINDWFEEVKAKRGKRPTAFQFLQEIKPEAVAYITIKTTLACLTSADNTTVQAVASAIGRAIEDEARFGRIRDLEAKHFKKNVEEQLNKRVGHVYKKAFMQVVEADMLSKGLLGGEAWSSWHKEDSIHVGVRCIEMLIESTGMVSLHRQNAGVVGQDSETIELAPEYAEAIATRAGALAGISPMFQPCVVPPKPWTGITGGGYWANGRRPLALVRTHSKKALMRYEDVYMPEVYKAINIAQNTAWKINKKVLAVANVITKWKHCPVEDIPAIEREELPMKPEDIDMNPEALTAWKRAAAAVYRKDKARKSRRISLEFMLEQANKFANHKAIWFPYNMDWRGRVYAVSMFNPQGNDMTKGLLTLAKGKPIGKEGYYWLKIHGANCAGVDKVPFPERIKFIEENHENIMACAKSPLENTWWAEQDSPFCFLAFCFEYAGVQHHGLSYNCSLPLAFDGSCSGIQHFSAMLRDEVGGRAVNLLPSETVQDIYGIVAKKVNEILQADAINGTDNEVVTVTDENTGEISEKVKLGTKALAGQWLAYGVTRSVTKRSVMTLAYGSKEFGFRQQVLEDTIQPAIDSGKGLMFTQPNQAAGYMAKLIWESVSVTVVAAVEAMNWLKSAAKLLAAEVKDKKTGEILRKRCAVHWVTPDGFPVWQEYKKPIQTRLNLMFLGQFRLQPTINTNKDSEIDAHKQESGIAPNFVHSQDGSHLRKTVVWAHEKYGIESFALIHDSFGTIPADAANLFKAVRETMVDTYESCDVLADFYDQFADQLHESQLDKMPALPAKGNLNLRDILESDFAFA
From the text: as §1, with “al..” for “al.. A recombinant mouse pol ι tagged with His6 at its C-terminal was expressed and purified by Ni-NTA column chromatography as described elsewhere (Masutani et al., in preparation).”
as §3

T4 polynucleotide kinase = molecular target: T7, T4 polynucleotide kinase (Enterobacteria phage T4, UniProt P06855); experiment: T4 polynucleotide kinase assay; settings: 100 μM
T7 construct: purchased Takara Bio (Tokyo, Japan)
From the text: as §1, with “al..” for “al.. A recombinant mouse pol ι tagged with His6 at its C-terminal was expressed and purified by Ni-NTA column chromatography as described elsewhere (Masutani et al., in preparation).”
as §3

T1 sequence (Q6R3M4 whole entry): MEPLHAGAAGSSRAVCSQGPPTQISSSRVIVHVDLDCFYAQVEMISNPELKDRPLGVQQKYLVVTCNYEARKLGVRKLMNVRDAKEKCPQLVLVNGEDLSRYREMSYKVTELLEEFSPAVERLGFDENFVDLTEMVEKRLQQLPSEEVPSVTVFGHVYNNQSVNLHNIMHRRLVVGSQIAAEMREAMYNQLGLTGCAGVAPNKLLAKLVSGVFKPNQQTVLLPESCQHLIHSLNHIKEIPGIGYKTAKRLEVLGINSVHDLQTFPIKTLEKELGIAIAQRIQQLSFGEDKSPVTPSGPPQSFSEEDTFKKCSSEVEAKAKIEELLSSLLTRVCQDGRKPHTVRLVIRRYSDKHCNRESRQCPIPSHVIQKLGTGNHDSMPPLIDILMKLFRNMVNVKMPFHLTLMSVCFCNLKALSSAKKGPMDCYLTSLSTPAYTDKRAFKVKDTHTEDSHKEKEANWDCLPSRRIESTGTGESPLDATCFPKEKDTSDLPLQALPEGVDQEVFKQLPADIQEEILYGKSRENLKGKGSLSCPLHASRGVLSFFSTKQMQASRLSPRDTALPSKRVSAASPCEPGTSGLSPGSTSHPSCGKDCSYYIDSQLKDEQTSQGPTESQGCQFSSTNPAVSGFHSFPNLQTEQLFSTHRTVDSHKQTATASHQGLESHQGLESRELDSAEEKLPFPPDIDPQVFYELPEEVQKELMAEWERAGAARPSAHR

SMILES: C/C=C/c1occ(C(=O)c2c(OC)cc(OC)cc2C(=O)OC)c(=O)c1OC [compound 1, 3-O-methylfunicone]
- effect on pol ι activity (mouse pol ι; 100 μM): selectively inhibit
- IC50 (mouse pol ι; poly(dA)/oligo(dT)18 and dTTP, 0.05 units enzyme, read-out: 50% inhibition of pol ι (IC50)): 34.3 µM
- effect on pol κ activity (human pol κ; 100 μM): selectively inhibit
- IC50 (human pol κ; poly(dA)/oligo(dT)18 and dTTP, 0.05 units enzyme, read-out: 50% inhibition of pol κ (IC50)): 12.5 µM
- effect on pol β activity (rat pol β): hardly influenced
- effect on TdT activity (calf thymus TdT): hardly influenced
- effect on fruit fly pol α activity (fruit fly pol α): hardly influenced
- effect on human telomerase activity (human telomerase): did not influence
- effect on T7 RNA polymerase activity (T7 RNA polymerase): did not influence
- effect on T4 polynucleotide kinase activity (T4 polynucleotide kinase): did not influence
